According to the supplement of paper PMC11061612:

Assays:
Carboplatin = compound: C1CC(C1)(C(=O)[O-])C(=O)[O-].N.N.[Pt+2] [Carboplatin]; details: max 10 µM
How it was run: (§1)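 Cancer cell lines were seeded in 1536-well plates in 7.5 μl DMEM/F12 or RPMI with 10% FBS, held 24 hours at 37°C and 5% CO2, then dosed for 72 hours (final DMSO typically 0.2%). Viability was read by CellTiter-Glo 2.0 luminescence and scaled between blank-well and DMSO-well means. The single-agent IC50 comes from dose responses fitted to a two-parameter logistic curve with a non-linear mixed effects model.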

AZD5363 = compound: C1CN(CCC1(C(=O)N[C@@H](CCO)C2=CC=C(C=C2)Cl)N)C3=NC=NC4=C3C=CN4 [AZD5363]; details: max 10 µM
How it was run: as §1

AZD1775 = compound: C=CCn1c(=O)c2cnc(Nc3ccc(N4CCN(C)CC4)cc3)nc2n1-c1cccc(C(C)(C)O)n1 [AZD1775]; details: max 3 µM
How it was run: as §1

Trametinib = compound: CC(=O)Nc1cccc(-n2c(=O)n(C3CC3)c(=O)c3c(Nc4ccc(I)cc4F)n(C)c(=O)c(C)c32)c1 [Trametinib]; details: max 1 µM
How it was run: as §1

Paclitaxel = compound: CC(=O)O[C@H]1C(=O)[C@@]2(C)[C@H]([C@H](OC(=O)c3ccccc3)[C@]3(O)C[C@H](OC(=O)[C@H](O)[C@@H](NC(=O)c4ccccc4)c4ccccc4)C(C)=C1C3(C)C)[C@]1(OC(C)=O)CO[C@@H]1C[C@@H]2O [Paclitaxel]; details: max 3 µM
How it was run: as §1

Palbociclib = compound: CC(=O)c1c(C)c2cnc(Nc3ccc(N4CCNCC4)cn3)nc2n(C2CCCC2)c1=O [Palbociclib]; details: max 10 µM
How it was run: as §1

AZD1390 = compound: CC(C)n1c(=O)n(C)c2cnc3cc(F)c(-c4ccc(OCCCN5CCCCC5)nc4)cc3c21 [AZD1390]; details: max 0.3 µM
How it was run: as §1

Venetoclax = compound: CC1(C)CCC(CN2CCN(c3ccc(C(=O)NS(=O)(=O)c4ccc(NCC5CCOCC5)c([N+](=O)[O-])c4)c(Oc4cnc5[nH]ccc5c4)c3)CC2)=C(c2ccc(Cl)cc2)C1 [Venetoclax]; details: max 1 µM
How it was run: as §1

Dasatinib = compound: CC1=C(C(=CC=C1)Cl)NC(=O)C2=CN=C(S2)NC3=CC(=NC(=N3)C)N4CCN(CC4)CCO [Dasatinib]; details: max 2 µM
How it was run: as §1

SG3199 = compound: CC1=CN2[C@@H](C1)C=NC3=CC(=C(C=C3C2=O)OC)OCCCCCOC4=C(C=C5C(=C4)N=C[C@@H]6CC(=CN6C5=O)C)OC [SG3199]; details: max 0.001 µM
How it was run: as §1

AZD2811 = compound: CCN(CCO)CCCOc1ccc2c(Nc3cc(CC(=O)Nc4cccc(F)c4)[nH]n3)ncnc2c1 [AZD2811]; details: max 1 µM
How it was run: as §1

SN-38 = compound: CCc1c2c(nc3ccc(O)cc13)-c1cc3c(c(=O)n1C2)COC(=O)[C@]3(O)CC [SN-38]; details: max 0.3 µM
How it was run: as §1

AZD0156 = compound: CN(C)CCCOc1ccc(-c2ccc3ncc4c(c3c2)n(C2CCOCC2)c(=O)n4C)cn1 [AZD0156]; details: max 3 µM
How it was run: as §1

AZD4320 = compound: CN(CC[C@H](CSC1=CC=CC=C1)NC2=C(C=C(C=C2)S(=O)(=O)NC(=O)C3=CC=C(C=C3)N4CCC(CC4)[C@H](C5=CC=CC=C5C6=CC=C(C=C6)Cl)O)S(=O)(=O)C(F)(F)F)CCO [AZD4320]; details: max 1 µM
How it was run: as §1

Alisertib = compound: COc1cc(Nc2ncc3c(n2)-c2ccc(Cl)cc2C(c2c(F)cccc2OC)=NC3)ccc1C(=O)O [Alisertib]; details: max 10 µM
How it was run: as §1

Etoposide = compound: COc1cc([C@@H]2c3cc4c(cc3[C@@H](O[C@@H]3O[C@@H]5CO[C@@H](C)O[C@H]5[C@H](O)[C@H]3O)[C@H]3COC(=O)[C@H]23)OCO4)cc(OC)c1O [Etoposide]; details: max 10 µM
How it was run: as §1

Gefitinib = compound: COc1cc2ncnc(Nc3ccc(F)c(Cl)c3)c2cc1OCCCN1CCOCC1 [Gefitinib]; details: max 10 µM
How it was run: as §1

Prexasertib = compound: COc1cccc(OCCCN)c1-c1cc(Nc2cnc(C#N)cn2)n[nH]1 [Prexasertib]; details: max 1 µM
How it was run: as §1

Doxorubicin = compound: COc1cccc2c1C(=O)c1c(O)c3c(c(O)c1C2=O)C[C@@](O)(C(=O)CO)C[C@@H]3O[C@H]1C[C@H](N)[C@H](O)[C@H](C)O1 [Doxorubicin]; details: max 1 µM
How it was run: as §1

AZD5153 = compound: COc1nnc2ccc(N3CCC(c4ccc(OCCN5CCN(C)C(=O)[C@H]5C)cc4)CC3)nn12 [AZD5153]; details: max 1 µM
How it was run: as §1

Lapatinib = compound: CS(=O)(=O)CCNCc1ccc(-c2ccc3ncnc(Nc4ccc(OCc5cccc(F)c5)c(Cl)c4)c3c2)o1 [Lapatinib]; details: max 10 µM
How it was run: as §1

AZD8186 = compound: C[C@@H](Nc1cc(F)cc(F)c1)c1cc(C(=O)N(C)C)cc2c(=O)cc(N3CCOCC3)oc12 [AZD8186]; details: max 10 µM
How it was run: as §1

Crizotinib = compound: C[C@@H](Oc1cc(-c2cnn(C3CCNCC3)c2)cnc1N)c1c(Cl)ccc(F)c1Cl [Crizotinib]; details: max 10 µM
How it was run: as §1

Savolitinib = compound: C[C@@H](c1ccc2nccn2c1)n1nnc2ncc(-c3cnn(C)c3)nc21 [Savolitinib]; details: max 1 µM
How it was run: as §1

AZD6738 = compound: C[C@@H]1COCCN1C2=NC(=NC(=C2)C3(CC3)[S@](=N)(=O)C)C4=C5C=CNC5=NC=C4 [AZD6738]; details: max 10 µM
How it was run: as §1

AZD5991 = compound: Cc1c2c(nn1C)CSCc1cc(n(C)n1)CSc1cc(c3ccccc3c1)OCCCc1c(C(=O)O)n(C)c3c-2c(Cl)ccc13 [AZD5991]; details: max 1 µM
How it was run: as §1

AZD7648 = compound: Cc1cc2ncnn2cc1Nc1ncc2c(n1)n(C1CCOCC1)c(=O)n2C [AZD7648]; details: max 10 µM
How it was run: as §1

Taselisib = compound: Cc1nc(-c2cn3c(n2)-c2ccc(-c4cnn(C(C)(C)C(N)=O)c4)cc2OCC3)n(C(C)C)n1 [Taselisib]; details: max 10 µM
How it was run: as §1

Selumetinib = compound: Cn1cnc2c(F)c(Nc3ccc(Br)cc3Cl)c(C(=O)NOCCO)cc21 [Selumetinib]; details: max 10 µM
How it was run: as §1

SRA737 = compound: N#Cc1cnc(Nc2cc(NC[C@H]3CNCCO3)c(C(F)(F)F)cn2)cn1 [SRA737]; details: max 10 µM
How it was run: as §1

MK-2206 = compound: NC1(c2ccc(-c3nc4ccn5c(=O)[nH]nc5c4cc3-c3ccccc3)cc2)CCC1 [MK-2206]; details: max 10 µM
How it was run: as §1

Gemcitabine = compound: Nc1ccn([C@@H]2O[C@H](CO)[C@@H](O)C2(F)F)c(=O)n1 [Gemcitabine]; details: max 0.3 µM
How it was run: as §1

[1] = compound: O=C(Nc1ccc2[nH]nc(-c3ccncc3)c2c1)[C@@H]1CCN(CC(=O)N2CCN(c3ccc(-c4ncccn4)cc3)CC2)C1; details: max 5 µM
How it was run: as §1

Olaparib = compound: O=C(c1cc(Cc2n[nH]c(=O)c3ccccc23)ccc1F)N1CCN(C(=O)C2CC2)CC1 [Olaparib]; details: max 10 µM
How it was run: as §1

5-Fluorouracil = compound: O=c1[nH]cc(F)c(=O)[nH]1 [5-Fluorouracil]; details: max 20 µM
How it was run: as §1

Cell Line	IC50, cell viability 72 h (Carboplatin) [nM]	IC50, cell viability 72 h (AZD5363) [nM]	IC50, cell viability 72 h (AZD1775) [nM]	IC50, cell viability 72 h (Trametinib) [nM]	IC50, cell viability 72 h (Paclitaxel) [nM]	IC50, cell viability 72 h (Palbociclib) [nM]	IC50, cell viability 72 h (AZD1390) [nM]	IC50, cell viability 72 h (Venetoclax) [nM]	IC50, cell viability 72 h (Dasatinib) [nM]	IC50, cell viability 72 h (SG3199) [nM]	IC50, cell viability 72 h (AZD2811) [nM]	IC50, cell viability 72 h (SN-38) [nM]	IC50, cell viability 72 h (AZD0156) [nM]	IC50, cell viability 72 h (AZD4320) [nM]	IC50, cell viability 72 h (Alisertib) [nM]	IC50, cell viability 72 h (Etoposide) [nM]	IC50, cell viability 72 h (Gefitinib) [nM]	IC50, cell viability 72 h (Prexasertib) [nM]	IC50, cell viability 72 h (Doxorubicin) [nM]	IC50, cell viability 72 h (AZD5153) [nM]	IC50, cell viability 72 h (Lapatinib) [nM]	IC50, cell viability 72 h (AZD8186) [nM]	IC50, cell viability 72 h (Crizotinib) [nM]	IC50, cell viability 72 h (Savolitinib) [nM]	IC50, cell viability 72 h (AZD6738) [nM]	IC50, cell viability 72 h (AZD5991) [nM]	IC50, cell viability 72 h (AZD7648) [nM]	IC50, cell viability 72 h (Taselisib) [nM]	IC50, cell viability 72 h (Selumetinib) [nM]	IC50, cell viability 72 h (SRA737) [nM]	IC50, cell viability 72 h (MK-2206) [nM]	IC50, cell viability 72 h (Gemcitabine) [nM]	IC50, cell viability 72 h [1] [nM]	IC50, cell viability 72 h (Olaparib) [nM]	IC50, cell viability 72 h (5-Fluorouracil) [nM]
BFTC-905 (Bladder Carcinoma)	> 10000	> 10000	680	86.4	6.02	> 10000	> 300	> 1000	1530	> 1	> 1000	4.55	> 3000	> 1000	1250	1160	> 10000	117	196	173	> 10000	> 10000	5240	> 1000	3790	> 1000	> 10000	1390	6560	> 10000	> 10000	10.7	1050	> 10000	> 20000
BL-41 (Burkitt's Lymphoma)	> 10000	> 10000	264	> 1000	3.91	> 10000	> 300	> 1000	> 2000	> 1	48	2.17	> 3000	> 1000	28.5	342	> 10000	3.67	37.7	46	6100	> 10000	2440	> 1000	618	48.2	> 10000	> 10000	> 10000	2000	> 10000	8.5	> 5000	> 10000	> 20000
CAMA-1 (Breast Carcinoma)	> 10000	4860	> 3000	> 1000	112	> 10000	> 300	> 1000	> 2000	> 1	> 1000	> 300	> 3000	> 1000	> 10000	> 10000	> 10000	> 1000	> 1000	> 1000	> 10000	7760	> 10000	> 1000	> 10000	> 1000	> 10000	> 10000	> 10000	> 10000	> 10000	> 300	> 5000	> 10000	> 20000
DND-41 (T-Lymphoblastic Leukemia)	> 10000	> 10000	334	> 1000	> 3000	> 10000	> 300	546	> 2000	> 1	> 1000	2.88	> 3000	33.8	> 10000	763	> 10000	6.75	424	595	7510	> 10000	4770	> 1000	1500	> 1000	> 10000	> 10000	> 10000	1090	> 10000	95.4	> 5000	> 10000	> 20000
ES1 (Ewing's Sarcoma)	> 10000	> 10000	784	> 1000	< 3	2170	> 300	> 1000	> 2000	> 1	510	3.1	> 3000	> 1000	2370	335	> 10000	13.5	101	604	> 10000	8670	2480	> 1000	1730	435	> 10000	1050	> 10000	2000	3970	2.61	> 5000	4470	9220
